From PubChem BioAssay AID2060912 (Molecular Pharmacology Branch, DTP, NCI, 2025)

Tested on: HUVEC/MSC spheroids viability
Test: Human HUVEC/MSC cell line growth inhibition [KRAS2];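 for viability, T/C: percent of DMSO vehicle control luminescence so 100% = untreated viability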
Conditions: for IC50: curve of first compound; for viability, T/C: stronger effect = lower value; active = viability on the fitted dose curve at most 10% of control; inactive = the rest
Method in brief: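 Stroma-only multicellular spheroids, formed from HUVEC and human MSCs at passages </=5, received RAS-pathway inhibitors with or without a second targeted drug. Dosing followed half-log dilutions from clinically achievable levels.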

CC1COCCN1c1cc(-c2ccnn2C)c2ccnc(-c3ccn[nH]3)c2n1 (configuration not stated) + COc1cc2nc(C)nc(NC(C)c3cc(N)cc(C(F)(F)F)c3)c2cc1OC1CCOC1
908 nM: IC50 (second compound 0.1 µM)
2520 nM: IC50 (second compound 3.16 µM)
1740 nM: IC50 (second compound 0.0316 µM)
inactive: viability, T/C (second compound 0.0316 µM, first compound 0.00949 µM) 98.9% | viability, T/C (second compound 0.0316 µM, first compound 0.03 µM) 92.4% | viability, T/C (second compound 0.0316 µM, first compound 0.0949 µM) 86.8% | viability, T/C (second compound 0.0316 µM, first compound 0.3 µM) 75.7% | viability, T/C (second compound 0.0316 µM, first compound 0.949 µM) 55.9% | viability, T/C (second compound 0.0316 µM, first compound 3 µM) 43.9% | viability, T/C (second compound 0.1 µM, first compound 0.00949 µM) 83.2% | viability, T/C (second compound 0.1 µM, first compound 0.03 µM) 81.1% | viability, T/C (second compound 0.1 µM, first compound 0.0949 µM) 79.7% | viability, T/C (second compound 0.1 µM, first compound 0.3 µM) 80.4% | viability, T/C (second compound 0.1 µM, first compound 0.949 µM) 48.8% | viability, T/C (second compound 0.1 µM, first compound 3 µM) 46.4% | viability, T/C (second compound 0.316 µM, first compound 0.00949 µM) 82.2% | viability, T/C (second compound 0.316 µM, first compound 0.03 µM) 95% | viability, T/C (second compound 0.316 µM, first compound 0.0949 µM) 80.3% | viability, T/C (second compound 0.316 µM, first compound 0.3 µM) 79.8% | viability, T/C (second compound 0.316 µM, first compound 0.949 µM) 47.6% | viability, T/C (second compound 0.316 µM, first compound 3 µM) 52.4% | viability, T/C (second compound 1 µM, first compound 0.00949 µM) 88.3% | viability, T/C (second compound 1 µM, first compound 0.03 µM) 89.8% | viability, T/C (second compound 1 µM, first compound 0.0949 µM) 95.8% | viability, T/C (second compound 1 µM, first compound 0.3 µM) 72.1% | viability, T/C (second compound 1 µM, first compound 0.949 µM) 53.3% | viability, T/C (second compound 1 µM, first compound 3 µM) 37.3% | viability, T/C (second compound 3.16 µM, first compound 0.00949 µM) 79% | viability, T/C (second compound 3.16 µM, first compound 0.03 µM) 94.1% | viability, T/C (second compound 3.16 µM, first compound 0.0949 µM) 93.2% | viability, T/C (second compound 3.16 µM, first compound 0.3 µM) 81.7% | viability, T/C (second compound 3.16 µM, first compound 0.949 µM) 59.5% | viability, T/C (second compound 3.16 µM, first compound 3 µM) 48.2% | viability, T/C (second compound 10 µM, first compound 0.00949 µM) 63.3% | viability, T/C (second compound 10 µM, first compound 0.03 µM) 72.6% | viability, T/C (second compound 10 µM, first compound 0.0949 µM) 65.2% | viability, T/C (second compound 10 µM, first compound 0.3 µM) 60.4% | viability, T/C (second compound 10 µM, first compound 0.949 µM) 59.4% | viability, T/C (second compound 10 µM, first compound 3 µM) 59%
1040 nM: IC50 (second compound 1 µM)
> 3000 nM: IC50 (second compound 0.316 µM) | IC50 (second compound 10 µM)
